In patent EP4631938A1, “NITROGEN-CONTAINING HETEROCYCLE WITH SEROTONIN RECEPTOR-BINDING ACTIVITY AND CARBOCYCLIC DERIVATIVE” (Shionogi & Co., Ltd, priority 2022, dated 2024):
Like-named read-outs stand apart in the source and are kept apart here.

What was measured:
[1] = target: T1, human recombinant 5-HT2C receptor (Homo sapiens, UniProt P28335); test: Test Example 2-2: 5-HT2C receptor binding inhibition test ([3H]-Mesulergine; non-specific ligand Ketanserin); conditions: non-specific binding with 500 µmol/L Ketanserin, 37°C, 2 hours
T1 construct: expressed in transfected cells; host or cells: Jump-In HEK cells (membrane preparation)
T1 sequence (P28335 33-458): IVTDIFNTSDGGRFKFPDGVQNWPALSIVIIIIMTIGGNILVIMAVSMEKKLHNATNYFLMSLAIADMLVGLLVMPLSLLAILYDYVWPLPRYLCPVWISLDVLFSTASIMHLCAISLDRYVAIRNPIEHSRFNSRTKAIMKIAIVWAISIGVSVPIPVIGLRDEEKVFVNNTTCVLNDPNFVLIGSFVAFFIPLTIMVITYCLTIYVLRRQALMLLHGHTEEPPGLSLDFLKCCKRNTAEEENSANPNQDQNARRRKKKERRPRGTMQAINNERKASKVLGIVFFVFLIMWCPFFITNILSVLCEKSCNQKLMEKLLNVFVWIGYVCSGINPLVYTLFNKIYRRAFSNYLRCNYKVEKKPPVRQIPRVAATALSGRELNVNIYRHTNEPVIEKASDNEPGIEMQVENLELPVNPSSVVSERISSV
Procedure: The Kd value is calculated when the lot of the cell membrane is changed. 1 mmol/L non-specific binding calculating compound dissolved in DMSO or DMSO is previously dispensed to the microplate by 0.5 µL, and the cell membrane is diluted with an Assay buffer. The radioactive ligand solution is diluted step by step, and counts are checked with a liquid scintillator. The Assay buffer containing diluted cell membranes is dispensed by 50 µL/well into the microplate. The radioactive ligand solution is then dispensed by 50 µL/well into the microplate and the plate is sealed. The microplate is allowed to stand at 37°C for 2 hours. During this time, 50 mmol/L Tris-HCl (pH 7.4) is dispensed by 50 µL/well into the UniFilter plate and allowed to stand at 4°C for 1 hour or longer. Thereafter, filtration is performed with a Cell Harvester (PerkinElmer). The radioactive ligand solution is dispensed by 10 µL/well into empty wells of the UniFilter plate. After drying the UniFilter plate at room temperature, MicroScinti20 is dispensed by 50 µL/well into the UniFilter plate, and the plate is sealed. UniFilter plate is allowed to stand at room temperature overnight. The radioactivity of [^3H]-Mesulergine bound to the 5-HT2C receptor is measured using Microbeta2 (PerkinElmer) at a measurement time of 1 min/well. The Saturation curve is drawn from the measured value, and the Kd value is calculated from the slope of the Scatchard Plot.
A compound solution dissolved in DMSO is dispensed to a microplate by 0.5 µL, and a cell membrane and a hot ligand are each diluted with an Assay buffer. The Assay buffer containing diluted cell membrane is then dispensed by 50 µL/well into the microplate. The radioactive ligand solution is then dispensed by 50 µL/well into the microplate and the plate is sealed. The microplate is then allowed to stand at 37°C for 2 hours. During this time, 50 mmol/L Tris-HCl (pH 7.4) is dispensed by 50 µL/well into the UniFilter plate and allowed to stand at 4°C for 1 hour or longer. Thereafter, filtration is performed with a Cell Harvester (PerkinElmer). After drying the UniFilter plate at room temperature, MicroScinti20 is dispensed by 50 µL/well into the UniFilter plate, and the plate is sealed. UniFilter plate is allowed to stand at room temperature overnight. The radioactivity of [^3H]-Mesulergine bound to the 5-HT2C receptor is measured using Microbeta2 (PerkinElmer) at a measurement time of 1 min/well. Non-specific binding is calculated from the radioactivity of [^3H]-Mesulergine in the presence of 500 µmol/L Ketanserin of unlabeled ligand, and total binding is calculated from the radioactivity of [^3H]-Mesulergine in the absence of the compound of the present invention (Vehicle). Finally, the Ki value is calculated from the dose-response curve.
(The binding activity of the compound according to the present invention is calculated from the following binding inhibition rate (%).) Inhibition rate (%) = [1−(c−a)/(b−a)] × 100 [formula] • a; average cpm of non-specific binding • b; average cpm of total binding • c; cpm in the presence of the test compound
The compounds of the present invention were tested essentially as described above.

[2] = target: T2, human recombinant 5-HT2A receptor (Homo sapiens, UniProt P28223); test: Test Example 1-2: 5-HT2A receptor binding inhibition test ([3H]-Ketanserin; non-specific ligand Ketanserin)
T2 construct: expressed in transfected cells; host or cells: Jump-In HEK cells (membrane preparation)
T2 sequence (P28223 whole entry): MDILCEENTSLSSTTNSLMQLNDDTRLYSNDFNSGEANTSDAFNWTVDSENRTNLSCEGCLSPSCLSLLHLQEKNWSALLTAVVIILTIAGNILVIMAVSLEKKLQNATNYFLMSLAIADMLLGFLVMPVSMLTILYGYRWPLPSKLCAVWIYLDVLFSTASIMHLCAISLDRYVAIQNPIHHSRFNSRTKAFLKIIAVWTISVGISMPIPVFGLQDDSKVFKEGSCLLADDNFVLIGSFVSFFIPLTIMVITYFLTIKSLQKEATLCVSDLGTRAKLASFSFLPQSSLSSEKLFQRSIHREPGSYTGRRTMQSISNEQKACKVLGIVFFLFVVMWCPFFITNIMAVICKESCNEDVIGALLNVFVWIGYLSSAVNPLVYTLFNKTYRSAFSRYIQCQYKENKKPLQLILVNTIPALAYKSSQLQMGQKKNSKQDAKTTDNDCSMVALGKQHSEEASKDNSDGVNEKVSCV
Summary of the method: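 Membranes expressing the receptor were incubated with [3H]-ketanserin and compound for 1.5 h at 25 °C, then filtered onto plates presoaked in 50 mmol/L Tris-HCl pH 7.4 and scintillation-counted. Non-specific binding was defined with 500 µmol/L unlabeled ketanserin. Ki was taken from dose-response curves, with Kd set for each membrane lot by Scatchard analysis.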

[3] = [3H]-Ketanserin, non-specific binding with 500 µmol/L Ketanserin, room temperature (25°C), 1.5 hours, read-out: h 5-HT2A Ki

Ki [1]	Ki [2, 3]	SMILES	Ki [2]
1.41 nM	0.246 nM	Cc1noc(C)c1-c1cc(Nc2ncc(C(F)(F)F)cc2F)ccc1OCCO [Compound I-010]	–
4.55 nM	0.133 nM	OCCOc1ccc(Nc2ncc(C(F)(F)F)cc2F)cc1-c1ccncc1Cl [Compound I-011]	–
6.43 nM	0.272 nM	Cc1cnccc1-c1cc(Nc2ncc(C(F)(F)F)cc2F)ccc1OCCO [Compound I-012]	–
7.21 nM	0.332 nM	Cc1ncccc1-c1cc(Nc2ncc(C(F)(F)F)cc2F)ccc1OCCO [Compound I-013]	–
8.88 nM	0.413 nM	COc1ncccc1-c1cc(Nc2ncc(C(F)(F)F)cc2F)ccc1OCCO [Compound I-014]	–
0.248 nM	0.195 nM	Cn1ncc(Cl)c1-c1cc(Nc2ncc(C(F)(F)F)cc2F)ccc1OCCO [Compound I-015]	–
0.699 nM	0.284 nM	Cn1ncc(Br)c1-c1cc(Nc2ncc(F)cc2F)ccc1OCCO [Compound I-016]	–
0.415 nM	0.266 nM	Cn1ncc(Br)c1-c1cc(Nc2ncc(Cl)cc2F)ccc1OCCO [Compound I-017]	–
1.89 nM	0.235 nM	Cn1ncc(F)c1-c1cc(Nc2ncc(C(F)(F)F)cc2F)ccc1OCCO [Compound I-018]	–
3.12 nM	0.548 nM	OCCOc1ccc(Nc2ncc(C(F)(F)F)cc2F)cc1-c1c(F)cccc1Cl [Compound I-019]	–
4.1 nM	0.722 nM	Cc1cc(C)c(-c2cc(Nc3ncc(C(F)(F)F)cc3F)ccc2OCCO)c(C)c1 [Compound I-021]	–
48.4 nM	0.428 nM	Cc1nn(C)c(C)c1-c1cc(Nc2ncc(C(F)(F)F)cc2F)ccc1OCCO [Compound I-022]	–
3.62 nM	0.246 nM	Cc1n[nH]c(C)c1-c1cc(Nc2ncc(C(F)(F)F)cc2F)ccc1OCCO [Compound I-023]	–
7.35 nM	0.607 nM	Cc1ccncc1-c1cc(Nc2ncc(C(F)(F)F)cc2F)ccc1OCCO [Compound I-024]	–
3.7 nM	0.25 nM	Cc1ccc(-c2cc(Nc3ncc(C(F)(F)F)cc3F)ccc2OCCO)c(C)n1 [Compound I-025]	–
7.89 nM	0.894 nM	OCCOc1ccc(Nc2ncc(C(F)(F)F)cc2F)cc1-c1ccnc(F)c1Cl [Compound I-026]	–
0.266 nM	0.292 nM	Cn1cnc(Br)c1-c1cc(Nc2ncc(C(F)(F)F)cc2F)ccc1OCCO [Compound I-027]	–
4.96 nM	0.209 nM	Cc1cnc(Nc2ccc(OCCO)c(-c3c(Br)cnn3C)c2)s1 [Compound I-028]	–
0.636 nM	0.286 nM	Cn1ncc(Br)c1-c1cc(Nc2nc3ccccc3s2)ccc1OCCO [Compound I-029]	–
0.881 nM	0.31 nM	Cc1cncc(C)c1-c1cc(Nc2ncc(C(F)(F)F)cc2F)ccc1OCCO [Compound I-030]	–
8.32 nM	0.734 nM	Cn1cnc(Br)c1-c1cc(Nc2ncc(F)cc2F)ccc1OCCO [Compound I-032]	–
3.43 nM	0.376 nM	Cc1nnn(C)c1-c1cc(Nc2ncc(C(F)(F)F)cc2F)ccc1OCCO [Compound I-033]	–
3.57 nM	0.77 nM	Cc1cccc(C)c1-c1cc(Nc2ncc(C(F)(F)F)cc2F)ccc1OCCO [Compound I-034]	–
2.35 nM	2.54 nM	Cc1cnn(C)c1-c1cc(Nc2ncc(C(F)(F)F)cc2F)c(Oc2ccn(C)n2)cc1OCCO [Compound I-035]	–
1.92 nM	0.344 nM	Cn1ncc(Br)c1-c1cc(Nc2nc(C(F)(F)F)cs2)ccc1OCCO [Compound I-036]	–

Ki [1]	Ki [2, 3]	SMILES	Ki [2]
1.4 nM	0.289 nM	Cn1ncc(Br)c1-c1cc(Nc2ncc(C#N)s2)ccc1OCCO [Compound I-037]	–
0.666 nM	0.215 nM	Cn1ncc(Br)c1-c1cc(Nc2ncc(C3CC3)s2)ccc1OCCO [Compound I-038]	–
0.245 nM	0.319 nM	Cn1ncc(Br)c1-c1cc(Nc2ncc(-c3ccccc3)s2)ccc1OCCO [Compound I-039]	–
1.16 nM	0.175 nM	Cn1ncc(Br)c1-c1cc(Nc2ncc(Cl)s2)ccc1OCCO [Compound I-040]	–
8.83 nM	0.155 nM	Cn1ncc(Br)c1-c1cc(Nc2nc3ccccc3o2)ccc1OCCO [Compound I-041]	–
8.35 nM	0.194 nM	Cn1ncc(Br)c1-c1cc(Nc2nc3ccccc3n2C)ccc1OCCO [Compound I-042]	–
0.165 nM	0.188 nM	Cn1ncc(Br)c1-c1cc(Nc2ncc(Br)cc2F)ccc1OCCO [Compound I-043]	–
15.1 nM	0.626 nM	Cn1ncc(Br)c1-c1cc(Nc2ncc(C#N)cc2F)ccc1OCCO [Compound I-044]	–
3.77 nM	0.235 nM	Cn1ncc(Br)c1-c1cc(Nc2ncccc2F)ccc1OCCO [Compound I-045]	–
1.33 nM	0.318 nM	COC(=O)c1cnc(Nc2ccc(OCCO)c(-c3c(Br)cnn3C)c2)c(F)c1 [Compound I-046]	–
4.26 nM	0.207 nM	Cn1ncc(Br)c1-c1cc(Nc2cc(C(F)(F)F)ccn2)ccc1OCCO [Compound I-047]	–
0.313 nM	0.163 nM	Cn1ncc(Br)c1-c1cc(Nc2ccc(C3CC3)cn2)ccc1OCCO [Compound I-048]	–
0.641 nM	0.168 nM	Cc1cnc(Nc2ccc(OCCO)c(-c3c(Br)cnn3C)c2)c(F)c1 [Compound I-049]	–
1.69 nM	0.395 nM	Cc1ncnc(C)c1-c1cc(Nc2ncc(C(F)(F)F)cc2F)ccc1OCCO [Compound I-050]	–
2.6 nM	0.318 nM	Cn1ncc(C#N)c1-c1cc(Nc2ncc(Cl)cc2F)ccc1OCCO [Compound I-051]	–
0.368 nM	0.389 nM	Cn1ncc(C(F)(F)F)c1-c1cc(Nc2ncc(C(F)(F)F)cc2F)ccc1OCCO [Compound I-052]	–
1.25 nM	0.291 nM	C=Cc1cnn(C)c1-c1cc(Nc2ncc(C(F)(F)F)cc2F)ccc1OCCO [Compound I-053]	–
0.745 nM	0.396 nM	CCc1cnn(C)c1-c1cc(Nc2ncc(C(F)(F)F)cc2F)ccc1OCCO [Compound I-055]	–
5.3 nM	0.386 nM	Cc1ncnc(C)c1-c1cc(Nc2ncc(Cl)cc2F)ccc1OCCO [Compound I-057]	–
30 nM	0.45 nM	Cn1nccc1-c1cc(Nc2ncc(C(F)(F)F)cc2F)ncc1OCCO [Compound I-059]	–
0.184 nM	0.158 nM	Cn1ncc(Br)c1-c1cc(Nc2ccc(OC(F)F)cn2)ccc1OCCO [Compound I-060]	–
1.31 nM	0.254 nM	Cn1ncc(Br)c1-c1cc(Nc2ccc(OC(F)(F)F)cc2)ccc1OCCO [Compound I-061]	–
0.17 nM	0.222 nM	CCn1ncc(Br)c1-c1cc(Nc2ncc(C(F)(F)F)cc2F)ccc1OCCO [Compound I-066]	–
0.196 nM	0.403 nM	OCCOc1ccc(Nc2ncc(C(F)(F)F)cc2F)cc1-c1c(Br)cnn1C1CC1 [Compound I-067]	–

SMILES	Ki [1]	Ki [2, 3]	Ki [2]
Cc1cccc(F)c1-c1cc(Nc2ncc(C(F)(F)F)cc2F)ccc1OCCO [Compound I-020]	5.38 nM	–	1.12 nM
